Data reported in patent US8343943B2, “Cancer sensitizer comprising glucosamine, glucosamine derivatives or salts thereof” (National Cancer Center, priority 2006, dated 2013).

Key:
[1] = system: MCF 7/DOX cells (doxorubicin resistant); assay: MTT cytotoxicity assay, doxorubicin with or without glucosamine; assay type: cell-based, human
Method: (§1) Human breast cancer cell line MDA-231 (doxorubicin resistant) was purchased from ATCC. MCF-7/DOX (doxorubicin resistant) was obtained from Dr. Kenneth H. Cowan (University of Nebraska Medical Center, 986805 Nebraska Medical Center, Omaha, Nebr. 68198-6805, USA). These cell lines were maintained in media supplemented with 10% fetal bovine serum (Gibco BRL), 1 mM sodium pyruvate (Gibco BRL), and 100 U/ml penicillin-streptomycin (Gibco BRL) at 37° C. in a humid 5% CO2 atmosphere and subcultured every two or three days.
(§2) An MTT assay was conducted through […] analysis on the reduction of yellow tetrazolium salt into purple formazan in the mitochondria of viable cells. Cells were seeded at a population of 1×10^5 cells/well in 24-well plates. After incubation for 24 hrs, the cells were exposed to doxorubicin. This anticancer agent was administered at a dose of 90 μM to MCF 7/DOX and 5 μM to MDA 231. A control was not treated with doxorubicin. On the very day of analysis, the culture medium in each well was substituted with a fresh medium containing MTT (3-(4,5-dimethylthiazol-2-yl)-2,5-diphenyltetrazolium) (Sigma) at a concentration of 0.5 mg per ml, followed by incubation therein for an additional 4 hrs. After the removal of the medium, 500 μl of DMSO was added to each well and the formazan crystals were dissolved using an orbital shaker. Cell viability was represented as a percentage of a test group to the control. These experiments were done in triplicate and repeated at least three times. For each experiment, the mean of three independent experiments and the standard deviations are given.
(§3) MTT assay was conducted to examine whether glucosamine increases the sensitivity of breast cancer cells to anticancer agents. MCF 7/DOX and MDA 231 cell lines, both resistant to anticancer agents, were treated with doxorubicin and glucosamine (1.0 to 10 mM) for 24 hrs. Controls were not treated with glucosamine, while doxorubicin was administered at concentrations of 5 μM to MDA-MB 231, and at a concentration of 90 μM to MCF-7/DOX.

[2] = system: MDA 231 cells (doxorubicin resistant); assay: as above; assay type: cell-based, human
Method: as §1, §2, §3

[3] = system: MCF 7 cells; assay: MTT cytotoxicity assay, anticancer agent-sensitive line; assay type: cell-based; conditions: MCF 7, sensitive to anticancer agent
Method: as §2
(§4) As measured through an MTT assay, almost all MCF 7 and MDA 468, both sensitive to anticancer agent, died, whereas apoptosis took place in about 50% of the anticancer agent-resistant cell lines.

[4] = system: MDA 468 cells; assay: as above; assay type: cell-based; conditions: MDA 468, sensitive to anticancer agent
Method: as §2, §4

[5] = system: I-κBα in MDA231 cells; assay: Western blotting against I-κBα, cytoplasm fractions; assay type: cell-based, human; conditions: MDA-231; cultured 1 hr; cytoplasm fraction
Method: (§5) Glucosamine was analyzed for its effect on I-κBα degradation. For this, MCF7/DOX and MDA231 cells were cultured for 1 hr and cytoplasm fractions thereof were harvested for Western blotting against I-κBα. Western blotting results are shown in the upper panel of FIG. 3B. Western blotting was quantified using a densitometer, and the results are depicted in the lower panel of FIG. 3B. For each value, the mean of three independent experiments and standard deviations are given.

[6] = system: I-κBα in MCF7/DOX cells; assay: as above; assay type: cell-based, human; conditions: MCF-7/DOX; cultured 1 hr; cytoplasm fraction
Method: as §5

[7] = system: NF-κB activity in MDA231 cells; assay: pNF-κB-SEAP reporter assay; assay type: cell-based, human; conditions: MDA-231; glucosamine 5 mM; 24 hrs
Method: (§6) MCF7/DOX and MDA231 cell lines were cultured in media supplemented with 10% fetal bovine serum (Gibco BRL), 1 mM sodium pyruvate (Gibco BRL) and 100 U/ml penicillin-streptomycin (Gibco BRL) at 37° C. in a humid 5% CO2 atmosphere. A pNF-κB-SEAP vector was transfected into the cells. 24 hrs after transfection, the cells were cultured in the presence of or absence of glucosamine (represented by GM, 5 mM) for 24 hrs. The cell culture was subjected to an SEAP assay, and the cells, after being harvested, were subjected to a β-galactosidase assay. The values obtained for the SEAP assay were corrected for transfection efficiency with a pGAL plasmid (1 μg). β-Galactosidase activity was measured to correct the SEAP activity. The SEAP assay was conducted according to the procedure set forth by the manufacturer (BD Biosciences Clontech, Co.). […] These experiments were done in triplicate and repeated at least three times. The values of each experiment are the mean of three independent experiments and the standard deviations.

[8] = system: NF-κB activity in MCF7/DOX cells; assay: pNF-κB-SEAP reporter assay; assay type: cell-based, human; conditions: MCF-7/DOX; glucosamine 5 mM; 24 hrs
Method: as §6

| Compound | apoptosis of cells ([1]; MCF 7/DOX, doxorubicin 90 μM alone) | apoptosis of cells ([2]; MDA 231, doxorubicin 5 μM alone) | cell death [3] | cell death [4] | I-κBα level [5] | I-κBα level [6] | sensitivity to doxorubicin when treated with glucosamine vs not treated ([1]; MCF 7/DOX, doxorubicin 90 μM, glucosamine 1.0 to 10 mM, 24 hrs) | apoptosis frequency, anticancer agent in combination with glucosamine vs alone ([1]; chemoresistant cells, FIG. 1 (MCF/DOX)) | sensitivity to doxorubicin when treated with glucosamine vs not treated ([2]; MDA 231, doxorubicin 5 μM, glucosamine 1.0 to 10 mM, 24 hrs) | apoptosis frequency, anticancer agent in combination with glucosamine vs alone ([2]; chemoresistant cells, FIG. 2 (MDA231)) | NF-κB activity [7] | NF-κB activity [8] |
| --- | --- | --- | --- | --- | --- | --- | --- | --- | --- | --- | --- | --- |
| COc1cccc2c1C(=O)c1c(O)c3c(c(O)c1C2=O)C[C@@](O)(C(=O)CO)C[C@@H]3O[C@H]1C[C@H](N)[C@H](O)[C@H](C)O1 [doxorubicin, reference compound] | about 50% | about 50% | almost all | almost all |  |  |  |  |  |  |  |  |
| N[C@H]1C(O)O[C@H](CO)[C@@H](O)[C@@H]1O (stereo partly drawn) [glucosamine] |  |  |  |  | increase | increase | twice as (two times more=three times as) sensitive | twice as frequently | twice as (two times more=three times as) sensitive | twice as frequently | decrease | decrease |
